Measurements reported in patent publication US12167995B2, “[((1R,2S,5R)-2-isopropyl-5-methyl-cyclohexanecarbonyl)-amino]-acetic acid isopropyl ester for treatment of chronic cough” (AXALBION SA, priority 2019, dated 2024).
“Also recorded” adds a separate entry of the source.

Tests used:
[1] = Phase 1 study in healthy volunteers: safety and tolerability; format: in vivo, human; conditions: single dose 5 mg ODT, 12 healthy subjects; no remarkable adverse events
hTRPA1 = target: T1, hTRPA1 (Homo sapiens, UniProt O75762); experiment: FLIPR calcium assay, selectivity against hTRPA1 (expressed in CHO); format: cell-based
T1 construct: expressed in transfected cells; host or cells: CHO
Procedure: (§1) Similarly, selectivity against hTRPA1 (expressed in CHO) and hTRPV1 (expressed in HEK-293) was assessed using FLIPR® calcium assay (at 100 μM, i.e., 10-fold more than the concentration for maximal response; see FIG. 12). […] For the agonist effect assessment, the effect of AX-8 was evaluated in the absence of the positive control agonist. The maximal signal elicited in the presence of the respective agonist (300 μM mustard oil for TRPA1; 3 μM capsaicin for TRPV1) was set to 100% activation and the signal in the presence of the vehicle control (HB-PS) was set to 0% activation. For the antagonist effect assessment, the channels were activated with the respective positive control agonist (100 μM mustard oil for TRPA1; 0.1 μM capsaicin for TRPV1). The effects of AX-8 to inhibit the signal was examined after agonist stimulation and compared to the respective positive control antagonist (3 μM ruthenium red). For each channel, the signal elicited in the presence of the respective positive control agonist was set to 100 (0% inhibition) and the signal in the presence of the respective positive control antagonist was set to 0 (100% inhibition).

[2] = test system: isolated guinea pig vagal nerves; experiment: Capsaicin-induced depolarization on isolated guinea pig vagal nerves (grease-gap recording)
Procedure: The vagal nerve is the main afferent pathway of the cough reflex loop. Therefore, the ability—and dependence on TRPM8—of AX-8 to inhibit the capsaicin-induced depolarization on isolated guinea pig vagal nerves was assessed. The tissue was assayed using an O2/CO2 gassed, grease-gap recording system as previously described (see, e.g., Birrell et al., 2009). Briefly, after the tissue has stabilised, it was exposed to a challenge (capsaicin, 1 μM, TRPV1 agonist for 2 minutes), then washed. This was then repeated to confirm the basal response. After washing, the tissue was incubated with vehicle or AX-8 (10 nM-1 mM) for 10 minutes. Following this, the tissue was re-challenged with capsaicin (in the presence of vehicle or AX-8).
Where the TRPM8 antagonist PF-05105679 (PF, 10 μM) was used, following the two reproducible responses to capsaicin, the nerve was incubated with the TRPM8 antagonist or vehicle (0.1% DMSO) for 10 minutes, prior to incubation with AX-8 or vehicle for 10 minutes. The nerve was then restimulated with capsaicin in the presence of PF/Vehicle and AX-8/Vehicle and the percentage of inhibition of the original response calculated. Following a wash period, the nerve was then restimulated with capsaicin to determine viability. The level of depolarization was recorded at each phase. The data were recorded as actual depolarisation levels and as a percentage inhibition (caused by the vehicle or test compound) of the mean of the initial, control recordings.

hTRPV1 = target: T2, hTRPV1 (Homo sapiens, UniProt Q8NER1); experiment: FLIPR calcium assay, selectivity against hTRPV1 (expressed in HEK-293); format: cell-based
T2 construct: expressed in transfected cells; host or cells: HEK-293
Procedure: as §1

[3] = test system: 87 primary molecular targets including 13 enzyme and 74 binding assays; experiment: Off-target pharmacology study (SafetyScreen87 assay); conditions: 100 μM AX-8
Excerpt: In addition, an off-target pharmacology study (SafetyScreen87 assay by Eurofins Pharma Discovery Services) has been performed. This assay package consists of 87 primary molecular targets including 13 enzyme and 74 binding assays, representing potential safety issues.

capsaicin-induced cough = experiment: Capsaicin-induced cough in awake guinea pig; format: in vivo
Procedure: AX-8's antitussive effect was evaluated in a standardized guinea pig model of cough (see, e.g., Brozmanova et al., 2012; Dong et al., 2016). Guinea pigs were placed in a plethysmography chamber and exposed for 10 minutes to nebulized capsaicin solution (0.1 mM) to induce cough. The cough frequency was detected as a transient change in airflow in the chamber and the signal recorded via a pressure transducer and computer. Additionally, the audio-amplified count was also recorded electronically. Coughs were counted for the 10-minute exposure period. The experiment was visually monitored by the investigator. A 5 mg/mL AX-8 solution was prepared by dissolving AX-8 in absolute ethanol at 200 mg/mL and then diluting in a solution of 4 mg/mL of sweet potato powder in saline (i.e., vehicle). The baseline frequency of coughing in response to exposure to capsaicin mist was recorded for the control (vehicle only) and treated (AX-8) group of animals (n=10 animals per group). Seven days later, animals were anesthetized with diethyl ether and a small animal laryngoscope was used to place the tip of a micro sprayer syringe in the oral cavity. Vehicle or AX-8 was administered into the oropharyngeal region at 75 μL per animal (n=10 animals per group). […] Ten minutes after administration, the guinea pigs were exposed to the capsaicin mist and the number of coughs recorded.

human TRPM8 = target: T3, human TRPM8 (Homo sapiens, UniProt Q7Z2W7); experiment: FLIPR calcium assay on cloned human TRPM8 channels expressed in CHO cells; format: cell-based
T3 construct: host or cells: CHO cells
Procedure: AX-8 potency was assessed using Fluorescence Imaging Plate Reader (FLIPR®) assays (study performed by ChanTest/Charles River). The in vitro effects were evaluated on cloned human TRPM8 channels expressed in CHO cells using a Fluo-8 calcium kit and a Fluorescence Imaging Plate Reader ([…]™) instrument. Changes is fluorescence intensity, reflecting the calcium flux through hTRPM8, were measured and the area under the signals (area under the curve, AUC) calculated and expressed in relative light units. Changes induced by the vehicle (HEPES-buffered physiological saline solution, HB-PS) were subtracted.

[4] = test system: refractory chronic cough (RCC); experiment: Clinical Trial 2: Global Rating of Change Scale (GRCS); format: in vivo, human
Excerpt: The GRCS was used by subjects to assess their overall status for the specified periods (the 4-hour period following dose; and the 24-hour period following dose). It consisted of a […] scale ranging from ‘a very great deal better’ to ‘a very great deal worse’.

T2 sequence (Q8NER1 whole entry): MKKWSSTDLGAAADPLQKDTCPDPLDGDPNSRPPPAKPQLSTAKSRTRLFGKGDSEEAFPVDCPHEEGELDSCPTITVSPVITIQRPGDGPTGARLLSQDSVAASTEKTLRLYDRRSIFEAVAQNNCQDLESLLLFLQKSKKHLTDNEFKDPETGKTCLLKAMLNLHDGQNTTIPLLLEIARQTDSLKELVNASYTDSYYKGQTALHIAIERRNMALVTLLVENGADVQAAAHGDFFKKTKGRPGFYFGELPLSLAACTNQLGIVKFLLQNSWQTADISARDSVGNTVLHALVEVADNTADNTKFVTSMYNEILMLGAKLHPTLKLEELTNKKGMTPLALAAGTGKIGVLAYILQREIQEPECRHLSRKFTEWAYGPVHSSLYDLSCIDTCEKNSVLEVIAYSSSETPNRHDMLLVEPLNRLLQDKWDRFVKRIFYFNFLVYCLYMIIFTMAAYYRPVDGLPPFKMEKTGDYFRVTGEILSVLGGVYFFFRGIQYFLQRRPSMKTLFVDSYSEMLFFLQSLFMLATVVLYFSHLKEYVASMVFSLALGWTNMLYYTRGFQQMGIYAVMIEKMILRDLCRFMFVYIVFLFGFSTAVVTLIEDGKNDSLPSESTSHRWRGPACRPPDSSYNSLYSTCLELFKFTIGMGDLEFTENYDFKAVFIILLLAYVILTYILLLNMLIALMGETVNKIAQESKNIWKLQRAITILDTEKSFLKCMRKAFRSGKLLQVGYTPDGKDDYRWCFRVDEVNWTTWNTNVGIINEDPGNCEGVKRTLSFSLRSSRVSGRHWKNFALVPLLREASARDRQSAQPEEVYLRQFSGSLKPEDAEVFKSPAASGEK
T1 sequence (O75762 whole entry): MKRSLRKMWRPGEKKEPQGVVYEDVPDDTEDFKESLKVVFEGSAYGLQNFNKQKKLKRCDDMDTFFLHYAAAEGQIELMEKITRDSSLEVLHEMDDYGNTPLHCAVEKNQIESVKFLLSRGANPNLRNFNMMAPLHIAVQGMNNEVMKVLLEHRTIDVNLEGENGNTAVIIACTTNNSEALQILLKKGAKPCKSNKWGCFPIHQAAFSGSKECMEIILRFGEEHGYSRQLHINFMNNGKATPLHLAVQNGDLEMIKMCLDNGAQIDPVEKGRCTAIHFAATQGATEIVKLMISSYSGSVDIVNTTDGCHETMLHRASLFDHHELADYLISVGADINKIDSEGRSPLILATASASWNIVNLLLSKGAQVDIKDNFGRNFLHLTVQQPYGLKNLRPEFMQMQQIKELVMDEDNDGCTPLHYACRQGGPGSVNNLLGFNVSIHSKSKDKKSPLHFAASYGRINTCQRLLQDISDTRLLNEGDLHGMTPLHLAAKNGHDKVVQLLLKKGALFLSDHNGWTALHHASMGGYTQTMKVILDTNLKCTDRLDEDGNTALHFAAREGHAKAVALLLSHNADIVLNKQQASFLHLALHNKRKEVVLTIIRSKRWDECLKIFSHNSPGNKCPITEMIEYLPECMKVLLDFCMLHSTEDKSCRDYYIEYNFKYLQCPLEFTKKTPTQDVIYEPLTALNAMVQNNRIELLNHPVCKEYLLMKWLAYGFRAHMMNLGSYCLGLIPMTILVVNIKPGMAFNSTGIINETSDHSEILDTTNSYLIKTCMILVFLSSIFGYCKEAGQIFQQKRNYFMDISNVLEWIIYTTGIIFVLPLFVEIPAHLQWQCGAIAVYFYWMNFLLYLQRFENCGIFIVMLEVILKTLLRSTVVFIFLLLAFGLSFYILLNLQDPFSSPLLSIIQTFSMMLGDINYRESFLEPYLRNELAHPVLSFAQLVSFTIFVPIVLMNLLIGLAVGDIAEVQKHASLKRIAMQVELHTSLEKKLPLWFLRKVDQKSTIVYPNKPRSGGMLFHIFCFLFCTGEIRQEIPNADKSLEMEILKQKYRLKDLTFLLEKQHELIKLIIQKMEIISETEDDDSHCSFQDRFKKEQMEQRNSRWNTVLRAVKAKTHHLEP
T3 sequence (Q7Z2W7 whole entry): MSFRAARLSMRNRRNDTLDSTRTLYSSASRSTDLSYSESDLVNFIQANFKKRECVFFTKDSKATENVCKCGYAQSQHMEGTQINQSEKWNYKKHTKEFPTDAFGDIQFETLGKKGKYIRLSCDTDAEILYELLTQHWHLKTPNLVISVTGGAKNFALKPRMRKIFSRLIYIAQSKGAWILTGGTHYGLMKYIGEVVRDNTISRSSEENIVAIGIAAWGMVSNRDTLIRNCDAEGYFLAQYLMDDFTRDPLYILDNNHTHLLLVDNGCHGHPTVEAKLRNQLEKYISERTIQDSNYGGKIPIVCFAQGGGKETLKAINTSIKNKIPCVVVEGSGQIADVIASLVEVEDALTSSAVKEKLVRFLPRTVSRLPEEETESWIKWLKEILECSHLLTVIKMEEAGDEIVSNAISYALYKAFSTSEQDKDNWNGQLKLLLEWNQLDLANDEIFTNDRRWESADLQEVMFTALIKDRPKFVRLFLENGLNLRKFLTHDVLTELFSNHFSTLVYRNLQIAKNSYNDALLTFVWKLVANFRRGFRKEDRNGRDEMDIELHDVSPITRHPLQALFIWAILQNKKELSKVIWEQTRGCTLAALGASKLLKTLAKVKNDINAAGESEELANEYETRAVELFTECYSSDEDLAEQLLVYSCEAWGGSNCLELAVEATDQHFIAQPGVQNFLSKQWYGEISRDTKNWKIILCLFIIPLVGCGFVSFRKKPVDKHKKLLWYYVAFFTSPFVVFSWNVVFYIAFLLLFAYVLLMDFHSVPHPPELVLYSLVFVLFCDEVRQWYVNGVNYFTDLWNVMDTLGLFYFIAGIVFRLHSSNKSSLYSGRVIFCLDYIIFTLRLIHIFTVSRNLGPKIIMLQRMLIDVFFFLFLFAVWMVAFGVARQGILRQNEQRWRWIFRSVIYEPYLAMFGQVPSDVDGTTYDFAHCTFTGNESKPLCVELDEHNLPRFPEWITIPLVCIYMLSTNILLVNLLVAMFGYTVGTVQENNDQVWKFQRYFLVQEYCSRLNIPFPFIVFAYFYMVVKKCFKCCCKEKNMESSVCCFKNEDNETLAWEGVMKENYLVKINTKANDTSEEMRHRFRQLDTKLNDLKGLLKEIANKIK

Compound: CC(C)OC(=O)CNC(=O)[C@@H]1C[C@H](C)CC[C@H]1C(C)C [AX-8, [((1R,2S,5R)-2-isopropyl-5-methyl-cyclohexanecarbonyl)-amino]-acetic acid isopropyl ester]
- safety and tolerability [1]: well tolerated
- antagonistic interaction with TRPA1 (hTRPA1; at 100 μM, channel activated with 100 μM mustard oil, control antagonist 3 μM ruthenium red): no agonistic or antagonistic interactions
- agonistic activity on hTRPA1 (hTRPA1; concentrations ≤100 μM, % of mustard oil maximal response, n=4): no agonistic or antagonistic interactions; also recorded: no significant agonistic activity on hTRPA1
- inhibition of the capsaicin-induced response in the presence of TRPM8 antagonist PF-05105679 ([2]; AX-8 1 μM, PF-05105679 10 μM pre-incubated 10 min, n=4): suppressed by pre-application of the TRPM8 antagonist PF-05105679; also recorded: blocked by the selective TRPM8 inhibitor PF-05105679
- inhibition of the capsaicin-induced response (maximum) ([2]; capsaicin 1 μM, AX-8 10 nM-1 mM, 10 min incubation, n=3): up to 80%
- inhibition of the capsaicin-induced response versus concentration ([2]; capsaicin 1 μM, n=3): blocked in a dose-dependent manner
- antagonistic interaction with TRPV1 (hTRPV1; at 100 μM, channel activated with 0.1 μM capsaicin, control antagonist 3 μM ruthenium red): no agonistic or antagonistic interactions
- agonistic activity on hTRPV1 (hTRPV1; concentrations ≤100 μM, % of capsaicin maximal response, n=4): no agonistic or antagonistic interactions; also recorded: no agonistic activity on hTRPV1
- responses in SafetyScreen87 off-target panel [3]: No significant responses were observed
- capsaicin-induced coughs after treatment (capsaicin-induced cough; 0.375 mg/animal sprayed in oropharyngeal region 10 min before 0.1 mM capsaicin mist, Baseline (T) 25.0±2.0, n=10, p<0.01): 9.0±2.0 coughs/10 min
- effect on capsaicin-induced cough (capsaicin-induced cough; 5 mg/mL solution, 75 μL per animal): inhibited significantly capsaicin-induced cough; also recorded: inhibits cough induced by an irritant
- EC50 (human TRPM8; calcium signal AUC, Fluo-8, n=8, read-out: half-maximal response concentration (EC50), activation of human TRPM8): 0.39 µM
- potency as TRPM8 agonist relative to menthol (human TRPM8; ratio of EC50 values): ~6 times
- GRCS Cough Frequency: patients rating about the same, n (%) ([4]; 4 hours after treatment, n=12): 7 (58.3%)
- GRCS Cough Frequency: patients rating better, n (%) ([4]; 4 hours after treatment, n=12): 4 (33.3%)
- GRCS Cough Frequency: patients rating worse, n (%) ([4]; 4 hours after treatment, n=12): 1 (8.3%)
- GRCS Cough Severity: patients rating about the same, n (%) ([4]; 4 hours after treatment, n=12): 6 (50%)
- GRCS Cough Severity: patients rating better, n (%) ([4]; 4 hours after treatment, n=12): 5 (41.7%)
- GRCS Cough Severity: patients rating worse, n (%) ([4]; 4 hours after treatment, n=12): 1 (8.3%)
- GRCS Cough Frequency: patients rating about the same, n (%) ([4]; 24 hours after treatment, n=11): 6 (54.5%)
- GRCS Cough Frequency: patients rating better, n (%) ([4]; 24 hours after treatment, n=11): 4 (36.4%)
- GRCS Cough Frequency: patients rating worse, n (%) ([4]; 24 hours after treatment, n=11): 1 (9.1%)
- GRCS Cough Severity: patients rating about the same, n (%) ([4]; 24 hours after treatment, n=11): 6 (54.5%)
- GRCS Cough Severity: patients rating better, n (%) ([4]; 24 hours after treatment, n=11): 4 (36.4%)
- GRCS Cough Severity: patients rating worse, n (%) ([4]; 24 hours after treatment, n=11): 1 (9.1%)
